Reference: US9518107B2, “Pharmaceutical compositions containing polypeptides derived from α-1 antitrypsin and methods of use thereof” (YISSUM RESEARCH DEVELOPMENT COMPANY OF THE HEBREW …, priority 2010, dated 2016)

Legend:
Human CD4 cells = test: Cytokine profile in human CD4+ cells activated with anti CD3 and anti CD28 antibodies (Multiplex); type: cell-based; settings: UBE 100 ng/ml, 72 hours
Method: Human CD4 cells were MACS separated from blood of healthy donors using the immunomagnetic separation system of Miltenyi, in accordance with manufacturer instructions. Cells were incubated (each well contained 0.5×106/0.5 ml) with human IL2 (100 U/ml) and human anti CD3 antibodies (1 ug/ml) and human anti CD28 antibodies (1 ug/ml) with or without UBE (100 ng/ml) for 72 hours in a CO2 (6%) incubator at 37° C. in multiwall plates. Thereafter plates were centrifuged and supernatants were collected and stored at −20° C. until cytokine analysis was conducted. Cytokines were determined by Multiplex system (BioRad). *p<0.02, **p<0.006 using students t-test for comparison between UBE-treated and control cells.

HaCaT keratinocytes = test: HaCaT keratinocyte proliferation (MTT assay); type: cell-based; settings: FIG. 18
Method: Cells (1.6×10^4/ml) were seeded (100 μl) in culture medium in 96 well plate. Twenty four hours later UBE was added at the indicated concentrations. Cell viability was determined by the MTT assay.

Female C57BL/6 mice = test: Experimental autoimmune encephalitis (EAE), MOG 35-55 induced, neurological score; type: in vivo; settings: thrice a week
Method: Female C57BL/6 mice were injected subcutaneously into 4 sites on the back, adjacent to each of the forelimbs and hindlimbs (total amount 200 μl) with a myelin oligodendritic glycoprotein (MOG) 35-55 fragment emulsified with complete Freund's adjuvant. Thereafter, each animal was i.p. injected with pertusis toxin (PTX; 200 ng/mouse) in PBS and an additional
PTX injection was repeated 2 days later, which is a standard protocol for initiating experimental autoimmune encephalomyelitis (EAE) in mice. UBE polypeptide (SEQ ID NO:2) was intraperitoneally (i.p.) injected (0.3 μg/kg, thrice a week) five days after MOG immunization (day of onset of symptoms). The animals were evaluated for neurological score from 0 (no effect) to 6 (severe neurological symptoms including paralysis). Results are the mean±SE of neurological score (sum of all scores divided by the number of animals in each experimental group) at each of the indicated time intervals after MOG injection.
Female C57BL/6 mice were injected subcutaneously into 4 sites on the back, adjacent to each of the forelimbs and hindlimbs (total amount 200 μl) with a myelin oligodendritic glycoprotein (MOG) 35-55 fragment emulsified with complete Freund's adjuvant. Thereafter, each animal was i.p. injected with pertusis toxin (PTX; 200 ng/mouse) in PBS and an additional PTX injection was repeated 2 days later. Four days after MOG immunization, each mouse received i.p. injections (1 μg/kg, thrice a week) of each of the following polypeptides:
The animals were evaluated for neurological score from 0 (no effect) to 6 (severe neurological symptoms including paralysis). Results are the mean±SE of neurological score (sum of all scores divided by the number of animals in each experimental group) at each of the indicated time intervals after immunization.

Female NZBW/F1 mice = test: Spontaneous lupus-like syndrome in NZBW/F1 mice (second SLE model); type: in vivo
Method: Female NZBW/F1 mice develop a lupus-like syndrome spontaneously. UBE (SEQ ID NO:2) (0.3 μg/kg) was administered to female NZBW/F1 mice daily (except for Saturday and Holidays), starting at the indicated time point (170 days) (n=10). Urine was obtained by spontaneous urination and the levels of protein (mg/dl) in the urine were evaluated throughout the treatment period using commercial sticks.
Quantitative histopathology analysis of the kidneys and lungs were also performed for this model (FIG. 12A-D). Kidneys were removed from control and UBE treated mice (0.3 lug/kg) then fixed in formalin, sliced, and stained by H&E. Representative histophathologies of the control versus UBE treated mice is shown FIGS. 12A versus 12B at 10× magnification, respectively. Note glomerular sclerosis (GS), thickening glomerular mesangium (G), protein accumulation in tubular lumen (PC), interstitial fibrosis (I) and perivascular lymphoid infiltration (lymphoid) in the control (12A) while normal appearance of kidney in the UBE-treated group (12B). The quantitative histopathology analysis with regard to tubular and interstitial damage is presented in FIG. 12C and FIG. 12D, respectively.
Quantitative histopathology analysis of the lungs was also performed for this model (FIG. 12E-G). Representative histophathologies of control versus UBE treated mice (0.3 μg/kg) is shown FIGS. 12E versus 12F at 10× magnification, respectively. Note heavy perivascular lymphoid infiltration (lymphoid) in the control samples (FIG. 12E) while normal appearance in the UBE-treated group (FIG. 12F).
In order to determine the levels of anti-dsDNA antibodies, blood was obtained by cardiac puncture of the NZBW/F1 mice at the indicated endpoint in UBE treatment, and the serum levels of anti-dsDNA antibodies and BLys (B lymphocyte stimulator) levels were determined by ELISA using a commercial kit (R&D Systems, Minneapolis, Minn., USA).
To evaluate the effect of UBE on lymphocyte function in NZBW/F1 mice, spleen cells and blood samples were isolated from control and UBE-treated (0.3 microgram per kilogram) mice and subjected to FACS analysis of double negative CD4−CD8− (expressed as percent CD3+) (FIG. 14).
Blood cells were similarly evaluated and representative results from control and UBE treated animals (0.3 μg/kg) are shown in FIGS. 14D and 14E, respectively.

male MRL/lpr mice = test: Advanced stage of Systemic Lupus Erythematosus in MRL/lpr mice; type: in vivo; settings: 1 μg/kg thrice a week from age of 22 weeks, 22 days; FIG. 10
Method: UBE (SEQ ID NO: 2; 1 μg/kg) was administered to male MRL/lpr mice thrice a week, starting at age of 22 weeks. At this age the mice are acutely affected and show a high level of proteinuria. Urine was obtained by spontaneous urination and the animals' urinary protein levels (mg/dl) were evaluated throughout the treatment period (22 days) using a commercial stick.

arthritic mice = test: Collagen type II induced arthritis, joint swelling; type: in vivo; settings: 1 μg/kg thrice a week, from five days after second immunization; FIG. 16
Method: Chick collagen type II (2.0 mg) was incubated overnight in 0.01 M acetic acid (0.9 ml) at 4° C. The resulting solution was emulsified with equal volume (1.0 ml) of […] Freund's Adjuvant containing 5.0 mg heat-killed Mycobacterium tuberculosis. Thereafter, the animal was injected intradermally in the tail base with 100 μl of the emulsion and an additional immunization was repeated 21 days later. Five days later, UBE or UBE1 polypeptide were administered (1 μg/kg thrice a week). The animals were evaluated for the difference in joint thickness (mm) between the indicated time intervals and prior to immunization.

SMPPIVRFDHPFLFIIFEEHTQSPLFVGKVVDPTHK (listed as Mus musculus) [UBE, 36-mer peptide corresponding to residues 378-413 of Mus musculus alpha-1-antitrypsin (serpin a1c)]
inflammatory mediators overall (IL6, IL17A, IL21, IL22, IL23, IL31, IFNγ) (Human CD4 cells; FIG. 22A-G): overall trend in reduced inflammatory mediators | IL22 production (Human CD4 cells; FIG. 22D): significantly reduced | IL23 production (Human CD4 cells; FIG. 22E): significantly reduced | IL31 production (Human CD4 cells; FIG. 22F): significantly reduced | effect on cultured keratinocyte proliferation (cell viability, MTT) (HaCaT keratinocytes): anti-proliferative effect | neurological symptoms (neurological score 0 to 6) (Female C57BL/6 mice; i.p. 0.3 μg/kg, from five days after MOG immunization, FIG. 2): reduced the neurological symptoms | neurological symptoms (neurological score 0 to 6) (Female C57BL/6 mice; i.p. 1 μg/kg, from four days after MOG immunization, FIG. 3): reduced the neurological symptoms | rise in urinary protein levels (proteinuria) (Female NZBW/F1 mice; UBE 0.3 μg/kg daily from 170 days, FIG. 11A): abrogated | pathological score of the tubular areas (kidney histopathology) (Female NZBW/F1 mice; UBE 0.3 μg/kg, FIG. 12C): significant reduction | pathological score of the interstitial areas (kidney histopathology) (Female NZBW/F1 mice; UBE 0.3 μg/kg, FIG. 12D): significant reduction | pathological score, lung parenchymal damage (Female NZBW/F1 mice; UBE 0.3 μg/kg, FIG. 12G): significant reduction | serum BLys (B lymphocyte stimulator) level, ELISA (Female NZBW/F1 mice; UBE 0.3 μg/kg, FIG. 13A): significant reduction | serum anti-dsDNA antibody level, ELISA (Female NZBW/F1 mice; UBE 0.3 μg/kg, FIG. 13B): significant reduction | double negative CD4−CD8− cells, FACS (Female NZBW/F1 mice; blood, UBE 0.3 μg/kg, FIG. 14F): dramatically reduced | double negative CD4−CD8− cells (percent CD3+), FACS (Female NZBW/F1 mice; spleen, UBE 0.3 μg/kg, FIG. 14C): dramatically reduced | proteinuria (urinary protein) (male MRL/lpr mice): significant reduction | joint swelling (difference in joint thickness) (arthritic mice): reduction in joint swelling
